Experimental data reported in US20130005988A1, “2-AZETIDINEMETHANEAMINES AND 2-PYRROLIDINEMETHANEAMINES AS TAAR-LIGANDS” (priority 2007, published 2013).

Key:
TAAR1 [1] = molecular target: T1, TAAR1 (Mus musculus, UniProt Q923Y8); assay: Radioligand binding on membranes of HEK293 cells stably expressing TAAR1; conditions: radioligand [3H]-rac-2-(1,2,3,4-tetrahydro-1-naphthyl)-2-imidazoline at 60 nM, 4° C., 30 min
T1 construct: expressed in transfected cells; host or cells: HEK293 (ATCC #CRL-1573), stably transfected with pIRESneo2 expression plasmid
T1 sequence (Q923Y8 whole entry): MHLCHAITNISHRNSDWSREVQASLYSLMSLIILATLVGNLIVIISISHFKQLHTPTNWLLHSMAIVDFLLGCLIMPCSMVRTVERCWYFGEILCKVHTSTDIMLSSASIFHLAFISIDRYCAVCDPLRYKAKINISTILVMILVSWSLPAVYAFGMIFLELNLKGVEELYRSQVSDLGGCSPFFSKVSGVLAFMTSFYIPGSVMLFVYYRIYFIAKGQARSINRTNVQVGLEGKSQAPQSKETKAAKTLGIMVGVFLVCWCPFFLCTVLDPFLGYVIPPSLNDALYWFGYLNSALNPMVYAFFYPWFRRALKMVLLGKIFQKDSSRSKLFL
Procedure: (§1) For the construction of expression plasmids the coding sequences of human, rat and mouse TAAR 1 were amplified from genomic DNA essentially as described by Lindemann et al.. The Expand High Fidelity PCR System (Roche Diagnostics) was used with 1.5 mM Mg^2+ and purified PCR products were cloned into pCR2.1-TOPO cloning vector (Invitrogen) following the instructions of the manufacturer. PCR products were subcloned into the pIRESneo2 vector (BD Clontech, Palo Alto, Calif.), and expression vectors were sequence verified before introduction in cell lines.
HEK293 cells (ATCC #CRL-1573) were cultured essentially as described Lindemann et al. (2005). For the generation of stably transfected cell lines HEK293 cells were transfected with the pIRESneo2 expression plasmids containing the TAAR coding sequences (described above) with Lipofectamine 2000 (Invitrogen) according to the instructions of the manufacturer, and 24 hrs post transfection the culture medium was supplemented with 1 mg/ml G418 (Sigma, Buchs, Switzerland). After a culture period of about 10 d clones were isolated, expanded and tested for responsiveness to trace amines (all compounds purchased from Sigma) with the cAMP Biotrak Enzyme immunoassay (EIA) System (Amersham) following the non-acetylation EIA procedure provided by the manufacturer.
Cells at confluence were rinsed with ice-cold phosphate buffered saline without Ca^2+ and Mg^2+ containing 10 mM EDTA and pelleted by centrifugation at 1000 rpm for 5 min at 4° C. The pellet was then washed twice with ice-cold phosphate buffered saline and cell pellet was frozen immediately by immersion in liquid nitrogen and stored until use at −80° C. Cell pellet was then suspended in 20 ml HEPES-NaOH (20 mM), pH 7.4 containing 10 mM EDTA, and homogenized with a Polytron (PT 3000, Kinematica) at 10,000 rpm for 10 s. The homogenate was centrifuged at 48,000×g for 30 min at 4° C. and the pellet resuspended in 20 ml HEPES-NaOH (20 mM), pH 7.4 containing 0.1 mM EDTA (buffer A), and homogenized with a Polytron at 10,000 rpm for 10 s. The homogenate was then centrifuged at 48,000×g for 30 min at 4° C. and the pellet resuspended in 20 ml buffer A, and homogenized with a Polytron at 10,000 rpm for 10 s. Protein concentration was determined by the method of Pierce (Rockford, Ill.). The homogenate was then centrifuged at 48,000×g for 10 min at 4° C., resuspended in HEPES-NaOH (20 mM), pH 7.0 including MgCl2 (10 mM) and […] homogenized with a Polytron at 10,000 rpm for 10 s.
Binding assay was performed at 4° C. in a final volume of 1 ml, and with an incubation time of 30 min. The radioligand [^3H]-rac-2-(1,2,3,4-tetrahydro-1-naphthyl)-2-imidazoline was used at a concentration equal to the calculated Kd value of 60 nM to give a bound at around 0.1% of the total added radioligand concentration, and a specific binding which represented approximately 70-80% of the total binding. Non-specific binding was defined as the amount of [^3H]-rac-2-(1,2,3,4-tetrahydro-1-naphthyl)-2-imidazoline bound in the presence of the appropriate unlabelled ligand (10 μM). Competing ligands were tested in a wide range of concentrations (10 pM-30 μM). […] Each experiment was performed in duplicate. All incubations were terminated by rapid filtration through UniFilter-96 plates (Packard Instrument Company) and glass filter GF/C, pre-soaked for at least 2 h in polyethylenimine 0.3%, and using a Filtermate 96 Cell Harvester (Packard Instrument Company). The tubes and filters were then washed 3 times with 1 ml aliquots of cold buffer B. Filters were not dried and soaked in Ultima gold (45 μl/well, Packard Instrument Company) and bound radioactivity was counted by a TopCount Microplate Scintillation Counter (Packard Instrument Company).

TAAR1 [2] = molecular target: T1, TAAR1; assay: Radioligand Kd used in the TAAR1 binding assay; conditions: radioligand in the TAAR1 membrane binding assay; species not stated; read-out: calculated Kd value
Procedure: as §1
Cells at confluence were rinsed with ice-cold phosphate buffered saline without Ca^2+ and Mg^2+ containing 10 mM EDTA and pelleted by centrifugation at 1000 rpm for 5 min at 4° C. The pellet was then washed twice with ice-cold phosphate buffered saline and cell pellet was frozen immediately by immersion in liquid nitrogen and stored until use at −80° C. […] Protein concentration was determined by the method of Pierce (Rockford, Ill.). […]
Binding assay was performed at 4° C. in a final volume of 1 ml, and with an incubation time of 30 min. […] The tubes and filters were then washed 3 times with 1 ml aliquots of cold buffer B. Filters were not dried and soaked in Ultima gold (45 μl/well, Packard Instrument Company) and bound radioactivity was counted by a TopCount Microplate Scintillation Counter (Packard Instrument Company).

Structure (SMILES) | Ki (TAAR1 [1]) [µM] | Kd (TAAR1 [2]) [nM]
CCN(C[C@@H]1CCCN1)c1ccc(Cl)c(Cl)c1 [Example 6, (3,4-Dichloro-phenyl)-ethyl-(S)-1-pyrrolidin-2-ylmethyl-amine] | 0.0028 | –
COc1cc(N(C)C[C@@H]2CCCN2)ccc1Cl [Example 8, (4-Chloro-3-methoxy-phenyl)-methyl-(8)-1-pyrrolidin-2-ylmethyl-amine] | 0.0859 | –
CCN(C[C@H]1CCCN1)c1cccc(Oc2ccccc2)c1 [Example 3, Ethyl-(3-phenoxy-phenyl)-(R)-1-pyrrolidin-2-ylmethyl-amine] | 0.0044 | –
c1ccc2c(c1)CCCC2C1=NCCN1 (racemic) [[^3H]-rac-2-(1,2,3,4-tetrahydro-1-naphthyl)-2-imidazoline] | – | 60
CCN(C[C@@H]1CCCN1)c1ccc(Cl)c(OC)c1 [Example 9, (4-Chloro-3-methoxy-phenyl)-ethyl-(8)-1-pyrrolidin-2-ylmethyl-amine] | 0.0092 | –
COc1cc(N(C[C@@H]2CCCN2)C(C)C)ccc1Cl [Example 12, (4-Chloro-3-methoxy-phenyl)-isopropyl-(S)-1-pyrrolidin-2-ylmethyl-amine] | 0.0213 | –
CC(C)N(C[C@@H]1CCCN1)c1ccc(Cl)c(Cl)c1 [Example 13, (3,4-Dichloro-phenyl)-isopropyl-(S)-1-pyrrolidin-2-ylmethyl-amine] | 0.005 | –
CCN(C[C@@H]1CCCN1)c1cccc(Oc2ccccc2)c1 [Example 4, Ethyl-(3-phenoxy-phenyl)-(S)-1-pyrrolidin-2-ylmethyl-amine] | 0.0172 | –
CCN(C[C@@H]1CCCN1)c1ccc(Cl)cc1 [Example 11, (4-Chloro-phenyl)-ethyl-(8)-1-pyrrolidin-2-ylmethyl-amine] | 0.0131 | –

The next lines start with results.

Ki (TAAR1 [1]) [µM] | Structure (SMILES) | Kd (TAAR1 [2]) [nM]
0.021 | CN(C[C@@H]1CCN1)c1ccc(Cl)cc1 [Example 21, (S)-1-Azetidin-2-ylmethyl-(4-chloro-phenyl)-methyl-amine] | –
0.0047 | CCN(C[C@@H]1CCN1)c1cccc(Br)c1 [Example 20, (S)-1-Azetidin-2-ylmethyl-(3-bromo-phenyl)-ethyl-amine] | –
0.041 | CC(C)N(C[C@@H]1CCN1)c1ccc(Cl)cc1 [Example 22, (S)-1-Azetidin-2-ylmethyl-(4-chloro-phenyl)-isopropyl-amine] | –
0.0107 | Clc1ccc(N(Cc2ccccc2)C[C@@H]2CCN2)cc1 [Example 23, (S)-1-Azetidin-2-ylmethyl-benzyl-(4-chloro-phenyl)-amine] | –
0.0137 | CCN(C[C@@H]1CCN1)c1cccc(OC)c1 [Example 19, (S)-1-Azetidin-2-ylmethyl-ethyl-(3-methoxy-phenyl)-amine] | –
0.0056 | CCN(C[C@H]1CCCN1)c1ccc(Cl)cc1 [Example 16, (4-Chloro-phenyl)-ethyl-(R)-1-pyrrolidin-2-ylmethyl-amine] | –
0.0092 | CCN(C[C@@H]1CCN1)c1ccccc1 [Example 18, (S)-1-Azetidin-2-ylmethyl-ethyl-phenyl-amine] | –
